Source: publication PMC10812557, “Progressive Design of a Ranatuerin-2 Peptide from Amolops wuyiensis: Enhancement of Bioactivity and In Vivo Efficacy” (Antibiotics, 2023)
Read-outs that look alike come from different tables or passages of the source. Bridge positions count the residues as written; N and C are the ends. Peptide text beside a SMILES is read from it.

Legend:
HCT116 = type: cell-based, human; conditions: 24 h
Protocol: (§1) Five human cancer cell lines of non-small-cell lung cancer H838, human prostate carcinoma PC-3, human neuronal glioblastoma U251MG, human breast cancer cell MCF-7, and colorectal carcinoma HCT116 were used to detect the antiproliferative abilities of R2AW and its five analogues. According to the procedures in a previous article, cells (8000 cells/well) were seeded into the 96-well tissue culture plates and incubated at 37 °C with 5% CO2 overnight. The solutions of R2AW and its analogues at concentrations of 10^−4 M to 10^−9 M were prepared in the serum-free medium. Next, cells in each well were treated with 100 μL of each peptide solution for 24 h. Subsequently, 10 μL of 5 mg/mL MTT (3-(4, 5-Dimethylthiazol-2-yl-)-2, 5-Diphehyltetrazolium Bromide) was added to each well followed by 37 °C incubation for 2 h. After that, the liquid in each well was removed and 100 μL of DMSO was added to dissolve the purple formazan. The plate was placed on a shaking incubator for 10 min, and the absorbance was detected at 550 nm using a Synergy HT plate reader (Biotech, Minneapolis, MN, USA).

MCF-7 = type: cell-based, human; conditions: 24 h
Protocol: as §1

PC-3 = type: cell-based, human; conditions: 24 h
Protocol: as §1

H838 = type: cell-based, human; conditions: 24 h
Protocol: as §1

U251MG = type: cell-based, human; conditions: 24 h
Protocol: as §1

S. aureus (NCTC 10788) [1] = type: cell-based, Staphylococcus aureus
Protocol: (§2) As a previous study described in detail, the ability of R2AW and its analogues to inhibit and eradicate the formation of biofilm was investigated. The MBIC is the lowest concentration which inhibits the formation of biofilm. The MBEC is the minimum concentration that eradicates biofilm. Six bacterial strains were used, as described above. Briefly, the bacteria were cultured and then diluted to 5 × 10^5 CFU/mL. In MBIC assays, 1 μL of each concentration of R2AW and its analogues (ranging from 512 × 10^2 μM to 100 μM) was mixed with 99 μL of diluted bacterial suspension in a 96-well plate for 16-20 h at 37 °C. As for MBEC assays, 100 μL of cultured bacteria were seeded in a 96-well plate and incubated on the shaking incubator at 37 °C overnight for biofilm formation. Subsequently, each well was rinsed twice with 100 μL sterile PBS to remove planktonic cells, and then replaced with 100 μL of each concentration (ranging from 512 μM to 1 μM) of peptides. After 24 h incubation, the biofilm was washed twice with 100 μL of PBS and fixed with methanol. Next, the same volume of 0.1% crystal violet solution (Sigma-Aldrich, Gillingham, UK) was added to each well to stain the biofilm. After that, 100 μL of 30% of acetic acid (Sigma-Aldrich, Gillingham, UK) was transferred to each well for dissolution. The solutions were transferred into a new 96-well plate and the absorbances of wells was monitored using a Synergy HT plate reader set to 595 nm.

E. coli (ATCC 8739) [2] = type: cell-based, Escherichia coli
Protocol: as §2

[3] = tested on: K. pneumoniae (ATCC 43816); type: cell-based
Description: (§3) The MIC and MBC assays were used to assess the inhibitory activities of all 5 analogues of R2AW on the growth of planktonic microorganisms. The MIC is the lowest concentration that prevents the viable growth of bacteria. The MBC is the lowest concentration that results in bacterial death. Six microorganisms were used to detect the antimicrobial activity of peptides, including Gram-positive bacteria S. aureus (NCTC 10788), MRSA (NCTC 12493), Enterococcus faecalis (E. faecalis) (NCTC 12697), Gram-negative bacteria E. coli […], Klebsiella pneumoniae (K. pneumoniae) (ATCC 43816), and Pseudomonas aeruginosa (P. aeruginosa) (ATCC 9027). According to the assay described previously, the microorganisms were inoculated at 37 °C overnight and diluted to 5 × 10^5 CFU/mL after reaching the logarithmic growth period. The peptide stock solution at the concentration of 512 × 10^2 μM was prepared and diluted to 100 μM by a 2-fold dilution. One μL of each concentration of peptide solution was incubated with 99 μL of bacterial subculture in the 96-well plate for 18 h at 37 °C. The absorbance was determined at a wavelength of 550 nm using a Synergy HT plate reader (Bio Tek, Washington, DC, USA). […] As for those wells that were clearly visible, 20 μL of the solution was dropped onto the Mueller Hinton agar (MHA) dish and then incubated at 37 °C overnight. The lowest concentration with no colony growth was determined as the MBC.

[4] = tested on: P. aeruginosa (ATCC 9027); type: cell-based
Description: as §3

E. coli (ATCC 8739) [5] = type: cell-based
Description: as §3

E. faecium (NTCC 12697) [6] = type: cell-based
Protocol: as §2

[7] = tested on: K. pneumoniae (ATCC 43816); type: cell-based, Klebsiella pneumoniae
Protocol: as §2

E. faecium (NTCC 12697) [8] = assay: microbe, parasite or virus in culture; type: cell-based
Description: as §3

S. aureus (NCTC 10788) [9] = assay: microbe, parasite or virus in culture; type: cell-based
Description: as §3

MRSA (NCTC 12493) [10] = assay: microbe, parasite or virus in culture; type: cell-based; conditions: MRSA (NCTC 12493)
Description: as §3

[11] = tested on: P. aeruginosa (ATCC 9027); type: cell-based, Pseudomonas aeruginosa
Protocol: as §2

MRSA (NCTC 12493) [12] = type: cell-based, methicillin-resistant Staphylococcus aureus; conditions: NCTC 12493
Protocol: as §2

[13] = tested on: five human cancer cell lines; type: cell-based; conditions: 24 h
Protocol: as §1

Compound | IC50 (HCT116) [µM] | IC50 (MCF-7) [µM] | IC50 (PC-3) [µM] | IC50 (H838) [µM] | IC50 (U251MG) [µM] | MBEC (S. aureus (NCTC 10788) [1]) [µM] | MBIC (S. aureus (NCTC 10788) [1]) [µM] | MBEC (E. coli (ATCC 8739) [2]) [µM] | MBIC (E. coli (ATCC 8739) [2]) [µM] | MBC ([3]; ATCC 43816, 18 h) [mg/L] | MIC ([3]; ATCC 43816, 18 h) [mg/L] | MBC ([4]; ATCC 9027, 18 h) [mg/L] | MIC ([4]; ATCC 9027, 18 h) [mg/L] | MBC (E. coli (ATCC 8739) [5]; ATCC 8739, 18 h) [mg/L] | MIC (E. coli (ATCC 8739) [5]; ATCC 8739, 18 h) | MBEC (E. faecium (NTCC 12697) [6]) [µM] | MBIC (E. faecium (NTCC 12697) [6]) [µM] | MBEC [7] | MBIC [7] | MBC (MRSA (NCTC 12493) [10]) | other results
CSCC[C@H](NC(=O)[C@H](Cc1ccccc1)NC(=O)CN)C(=O)N[C@@H](CC(=O)O)C(=O)N[C@H](C(=O)N[C@@H](C)C(=O)N[C@@H](CCCCN)C(=O)N[C@@H](CC(N)=O)C(=O)N[C@H](C(=O)N[C@@H](C)C(=O)N[C@@H](CCCCN)C(=O)N[C@@H](CC(N)=O)C(=O)N[C@H](C(=O)N[C@@H](C)C(=O)N[C@@H](C)C(=O)N[C@H](C(=O)N[C@@H](CC(C)C)C(=O)N[C@@H](CC(C)C)C(=O)N[C@@H](CC(=O)O)C(=O)N[C@@H](CCCCN)C(=O)N[C@@H](CC(C)C)C(=O)N[C@@H](CCCCN)C(N)=O)[C@@H](C)O)C(C)C)C(C)C)[C@@H](C)O [R2AW(1-22)-NH2] (H-GFMDTAKNVAKNVAATLLDKLK-NH2) | 609 | 374 | 194 | 58.9 | 516 | > 512 | 128 | 512 | 256 | 601 | 601 | > 1202 | 1202 | 301 | 300 mg/L | >512 | >512 | 512/>512 µM | 512/>512 µM | 601 mg/L | MBC (E. faecium (NTCC 12697) [8]; NTCC 12697, 18 h): 601 mg/L; MIC (E. faecium (NTCC 12697) [8]; NTCC 12697, 18 h): 601 mg/L; MBC (S. aureus (NCTC 10788) [9]; NCTC 10788, 18 h): 150 mg/L; MIC (S. aureus (NCTC 10788) [9]; NCTC 10788, 18 h): 150 mg/L; MIC (MRSA (NCTC 12493) [10]): 601 mg/L; MBEC [11]: >512 µM; MBIC [11]: >512 µM
CC[C@H](C)[C@H](NC(=O)CN)C(=O)NCC(=O)N[C@@H](C)C(=O)N[C@H](C(=O)N[C@@H](CC(C)C)C(=O)N[C@@H](CCCCN)C(=O)N[C@H](C(=O)N[C@@H](CC(C)C)C(=O)N[C@H](C(=O)N[C@H](C(=O)NCC(=O)N[C@@H](CC(C)C)C(=O)N1CCC[C@H]1C(=O)N[C@@H](C)C(=O)N[C@@H](CC(C)C)C(=O)N[C@H](C(=O)N[C@@H](CO)C(=O)N[C@@H](Cc1c[nH]c2ccccc12)C(=O)N[C@H](C(=O)N[C@@H](CCCCN)C(=O)N[C@@H](CCCNC(=N)N)C(=O)N[C@@H](CCCCN)C(=O)N[C@@H](CCCNC(=N)N)C(=O)N[C@@H](CCC(N)=O)C(=O)N[C@@H](CCC(N)=O)C(N)=O)[C@@H](C)CC)[C@@H](C)CC)[C@@H](C)O)[C@@H](C)O)C(C)C)C(C)C [Melittin, reference compound] |  |  |  |  |  |  |  |  |  |  |  |  |  |  |  |  |  |  |  | 2 µM | MBC ([3]; K. pneumoniae (ATCC 43816)): 32 µM; MIC ([3]; K. pneumoniae (ATCC 43816)): 32 µM; MBC ([4]; P. aeruginosa (ATCC 9027)): 32 µM; MBC (E. coli (ATCC 8739) [5]; E. coli (ATCC 8739)): 4 µM; MBC (E. faecium (NTCC 12697) [8]; E. faecium (NTCC 12697)): 2 µM; MIC (E. faecium (NTCC 12697) [8]; E. faecium (NTCC 12697)): 2 µM; MBC (S. aureus (NCTC 10788) [9]; S. aureus (NCTC 10788)): 2 µM
CC[C@H](C)[C@@H]1NC(=O)[C@H](CCCCN)NC(=O)[C@@H](NC(=O)[C@H](CCCCN)NC(=O)[C@H](CC(C)C)NC(=O)[C@H](CCCCN)NC(=O)[C@H](CC(=O)O)NC(=O)[C@H](CC(C)C)NC(=O)[C@H](CC(C)C)NC(=O)[C@@H](NC(=O)[C@H](C)NC(=O)[C@H](C)NC(=O)[C@@H](NC(=O)[C@H](CC(N)=O)NC(=O)[C@H](CCCCN)NC(=O)[C@H](C)NC(=O)[C@@H](NC(=O)[C@H](CC(N)=O)NC(=O)[C@H](CCCCN)NC(=O)[C@H](C)NC(=O)[C@@H](NC(=O)[C@H](CC(=O)O)NC(=O)[C@H](CCSC)NC(=O)[C@H](Cc2ccccc2)NC(=O)CN)[C@@H](C)O)C(C)C)C(C)C)[C@@H](C)O)CSSC[C@@H](C(=O)O)NC(=O)CNC(=O)CNC(=O)[C@H]([C@@H](C)O)NC1=O [R2AW] (H-GFMDTAKNVAKNVAATLLDKLKCKITGGC-OH; disulfide 23-29) | 10.8 | 33.2 | 5.09 | 10.8 | 30.8 | > 512 | 128 | 512 | 128 | 771 | 385 | 1541 | 385 | 193 | 32 µM | >512 | >512 | 512/>512 µM | 512/>512 µM | 1541 mg/L | MBC (E. faecium (NTCC 12697) [8]; NTCC 12697, 18 h): 771 mg/L; MIC (E. faecium (NTCC 12697) [8]; NTCC 12697, 18 h): 770 mg/L; MBC (S. aureus (NCTC 10788) [9]; NCTC 10788, 18 h): 193 mg/L; MIC (S. aureus (NCTC 10788) [9]; NCTC 10788, 18 h): 32 µM; MIC (MRSA (NCTC 12493) [10]): 770 mg/L; MBEC [11]: >512 µM; MBIC [11]: >512 µM; MBEC (MRSA (NCTC 12493) [12]): > 512 µM; MBIC (MRSA (NCTC 12493) [12]): 256 µM; IC50 [13]: 5.09 to 33.2 µM
CSCC[C@H](NC(=O)[C@H](Cc1ccccc1)NC(=O)CN)C(=O)N[C@@H](CC(=O)O)C(=O)N[C@H](C(=O)N[C@@H](C)C(=O)N[C@@H](CCCCN)C(=O)N[C@@H](CC(N)=O)C(=O)N[C@H](C(=O)N[C@@H](C)C(=O)N[C@@H](CCCCN)C(=O)N[C@@H](CC(N)=O)C(=O)N[C@H](C(=O)N[C@@H](C)C(=O)N[C@@H](C)C(=O)N[C@H](C(=O)N[C@@H](CC(C)C)C(=O)N[C@@H](CC(C)C)C(=O)N[C@@H](CC(=O)O)C(=O)N[C@@H](CCCCN)C(=O)N[C@@H](CC(C)C)C(=O)N[C@@H](CCCCN)C(=O)O)[C@@H](C)O)C(C)C)C(C)C)[C@@H](C)O [R2AW(1-22)] (H-GFMDTAKNVAKNVAATLLDKLK-OH) | 1120 | 894 | 1480 | 1420 | 1820 | >512 | >512 | >512 | >512 | > 1202 | > 1203 | > 1202 | > 1203 | > 1202 | > 1203 mg/L | >512 | >512 | >512 µM | >512 µM | > 1202 mg/L | MBC (E. faecium (NTCC 12697) [8]; NTCC 12697, 18 h): > 1202 mg/L; MIC (E. faecium (NTCC 12697) [8]; NTCC 12697, 18 h): > 1203 mg/L; MBC (S. aureus (NCTC 10788) [9]; NCTC 10788, 18 h): > 1202 mg/L; MIC (S. aureus (NCTC 10788) [9]; NCTC 10788, 18 h): > 1203 mg/L; MIC (MRSA (NCTC 12493) [10]): > 1203 mg/L; MBEC [11]: >512 µM; MBIC [11]: >512 µM; MBEC (MRSA (NCTC 12493) [12]): >512 µM; MBIC (MRSA (NCTC 12493) [12]): >512 µM
